The record followed here is patent US20100168192A1, “BENZISOXAZOLE DERIVATIVES AS POTASSIUM CHANNEL MODULATORS FOR THE TREATMENT OF E.G. RESPIRATORY DISEASES, EPILEPSY AND CONVULSIONS” (NeuroSearch A/S, priority 2007, published 2010).

One data set concerns the target T1, BK channels (Homo sapiens, UniProt Q12791).
T1 construct: expressed in transfected cells; host or cells: Xenopus laevis oocytes
Kind of data set: BK channel opening activity, two-electrode voltage clamp in Xenopus laevis oocytes. The format is cell-based. The protocol: In this example the BK channel opening activity of Compound 1 (i.e. N-(2-Benzo[d]isoxazol-3-yl-acetyl)-methanesulfonamide) is determined using BK channels heterologously expressed in Xenopus laevis oocytes.
The electrical current through the BK channel was measured using conventional two-electrode voltage clamp. BK currents were activated by repeating ramp protocols. In brief, the membrane potential was continuously changed from −120 mV to +120 mV within a 2 s period. The threshold for BK activation is approximately +30 mV under control conditions. Compounds were applied for 100 s during which the ramp protocol was repeated 10 times with 10 s intervals. In between the ramp protocols the membrane potential was clamped at −80 mV. The first three compound applications were control blanks where the current level is allowed to stabilize.
In order to evaluate the ability of the compounds to shift the BK activation curve towards lower membrane potentials, the BK current was transformed into conductance by using Ohm's law g=I/(Ememb−Erev), where g is the conductance, I is the current, Ememb is the membrane potential and Erev is the reversal potential. The extracellular solution for these experiments contained 2.5 mM K+ and the intracellular K+ concentration of an oocyte was estimated to be 100 mM. Under those conditions, Nernst equation predicts a reversal potential of Erev=−93.2 mV. The control conductance level at a membrane potential of +100 mV was calculated, and the compound effect was evaluated as the potential difference, ΔV, to the membrane potential at which the same conductance level was obtained in the presence of compound.
The concentration response curve for this potential difference was fitted to the sigmoidal logistic equation: ΔV=ΔVmax/(1+(EC50/[compound])^n), where ΔVmax represents the maximal left shift of the BK activation curve, EC50 is the concentration causing a half maximal response, and n is the slope coefficient.
A general note: Two-electrode voltage clamp holds a large cell at a set potential and records current.

T1 sequence (Q12791 whole entry): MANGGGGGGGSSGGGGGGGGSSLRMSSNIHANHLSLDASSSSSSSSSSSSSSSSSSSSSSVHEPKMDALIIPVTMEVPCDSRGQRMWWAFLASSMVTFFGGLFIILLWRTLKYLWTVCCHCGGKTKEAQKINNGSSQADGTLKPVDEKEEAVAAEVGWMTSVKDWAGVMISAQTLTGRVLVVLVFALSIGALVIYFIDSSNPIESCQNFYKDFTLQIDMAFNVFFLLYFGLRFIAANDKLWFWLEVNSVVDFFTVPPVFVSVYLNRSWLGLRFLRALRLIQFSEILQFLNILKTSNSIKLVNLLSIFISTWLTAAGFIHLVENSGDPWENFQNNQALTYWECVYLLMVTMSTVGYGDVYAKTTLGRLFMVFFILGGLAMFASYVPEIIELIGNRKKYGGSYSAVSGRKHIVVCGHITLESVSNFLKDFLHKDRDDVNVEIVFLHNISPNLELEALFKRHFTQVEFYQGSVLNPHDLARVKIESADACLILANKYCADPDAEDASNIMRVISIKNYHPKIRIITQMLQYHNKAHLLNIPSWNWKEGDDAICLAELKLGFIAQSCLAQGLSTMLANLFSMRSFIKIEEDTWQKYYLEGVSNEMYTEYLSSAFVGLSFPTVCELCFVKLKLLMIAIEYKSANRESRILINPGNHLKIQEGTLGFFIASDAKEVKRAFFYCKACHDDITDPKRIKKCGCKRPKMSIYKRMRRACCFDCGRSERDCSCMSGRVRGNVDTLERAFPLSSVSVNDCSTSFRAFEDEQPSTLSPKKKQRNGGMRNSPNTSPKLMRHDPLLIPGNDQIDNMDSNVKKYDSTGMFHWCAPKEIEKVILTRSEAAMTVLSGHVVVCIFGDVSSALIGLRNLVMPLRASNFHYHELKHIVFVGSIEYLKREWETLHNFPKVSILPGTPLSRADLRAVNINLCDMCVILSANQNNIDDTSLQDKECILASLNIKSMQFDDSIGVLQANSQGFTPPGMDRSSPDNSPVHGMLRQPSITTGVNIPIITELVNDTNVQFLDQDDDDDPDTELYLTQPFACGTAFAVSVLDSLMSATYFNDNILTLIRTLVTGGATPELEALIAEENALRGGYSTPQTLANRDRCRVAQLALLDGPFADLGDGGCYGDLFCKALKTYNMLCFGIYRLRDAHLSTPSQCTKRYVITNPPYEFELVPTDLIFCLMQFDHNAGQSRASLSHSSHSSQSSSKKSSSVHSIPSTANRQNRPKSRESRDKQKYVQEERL

`CS(=O)(=O)NC(=O)Cc1noc2ccccc12` [Compound 1, N-(2-Benzo[d]isoxazol-3-yl-acetyl)-methanesulfonamide] registered a melting point of 167 to 171 °C. For the same compound, the “ΔVmax, maximal left-shift of the BK activation curve” value at BK channels (BK channels heterologously expressed in Xenopus laevis oocytes, 0.01-31.6 μM, fitted to sigmoidal logistic equation) is −15 mV. In addition, the EC50 on BK channels (BK channels heterologously expressed in Xenopus laevis oocytes, 0.01-31.6 μM, ΔV at control conductance level of +100 mV, fitted to sigmoidal logistic equation, read-out: EC50 for the left-shift of the BKCa-activation curve) is 300 nM. Moreover, on BK channels (increasing concentrations (0.01-31.6 μM), ramp protocol −120 mV to +120 mV, Xenopus laevis oocytes), the “BK current level at depolarizing potentials” value is on record as “marked increase in the current level”.

As a reminder, the melting point is the temperature of the solid-liquid transition.
